Earlier results, collected in patent publication US20230357519A1, “REMOVAL OF ODORANTS FROM POST-CONSUMER POLYOLEFIN WASTE” (Borealis AG, priority 2020, published 2023).

Conditions: octanol/water; not determined experimentally, generally accepted literature values

log Poctanol/water | Structure (SMILES)
6.09^6 | CCCCC(C)CCCC(C)C (centres unmarked) [2,6-Dimethyl decane]
2.73^3 | CCCCC(CC)CO (centres unmarked) [2-Ethyl-1-hexanol]
3.16^2 | CCCCCCCC(C)=O [2-Nonanone]
0.84^2 | CCCC(C)=O [2-Pentanone]
5.03^5 | CCCCC(CCCC)CC(C)C [5-(2-Methylpropyl)-nonane]
3.05^2 | C=Cc1ccccc1 [Styrene]

Structure (SMILES) | log Poctanol/water
CC(O)C(C)O (centres unmarked) [2,3-Butanediol] | −0.92^1
C=C(C)[C@H]1CC=C(C)CC1 [D-Limonene] | 4.57^4
